From patent US8048825B2, “Haloalkylsulfonanilide derivatives or salt thereof, herbicide comprising the derivatives as active ingredient, and use of the herbicide” (Nihon Nohyaku Co., Ltd., priority 2006, dated 2011)

How the values were obtained:
Format in all cases: in vivo
Lindernia procumbens [1] = assay: Herbicidal efficacy on paddy field weeds of pre-emergence stage (Pre), Test Example 1; conditions: 1000 g/ha as active ingredient, examined after 21 days
Protocol: (§1) 75 cm^2 plastic pots were filled with the soil (clay loam). Seeds of Scirpus juncoides, a paddy weed, were planted, and they were covered with 75 cm^3 of soil mixed with seeds of Lindernia procumbens and then filled with water depth of 5 cm. Next day, predetermined effective dosage (1000 g/ha as an active ingredient) of formulations comprising a compound of the present invention as an active ingredient which were prepared following Formulation Examples 1 to 4 was diluted with water and applied dropwise to the surface of the water. Then, they were brought up in a greenhouse and the herbicidal effect was examined after 21 days from the treatment by comparing with the result of an untreated group according to the following criteria. In the table, “-” means that the test was not performed.
(§2) Criteria for herbicidal efficacy (growth inhibiting degree) and phytotoxicity. • 5 . . . 100% herbicidal effect, phytotoxicity. • 4 . . . 90%-99% herbicidal effect, phytotoxicity. • 3 . . . 70%-89% herbicidal effect, phytotoxicity. • 2 . . . 40%-69% herbicidal effect, phytotoxicity. • 1 . . . 1%-39% herbicidal effect, phytotoxicity. • 0 . . . 0% herbicidal effect, phytotoxicity.

Scirpus juncoides [2] = assay: as above; conditions: 1000 g/ha as active ingredient, examined after 21 days
Protocol: as §1, §2

Lindernia procumbens [3] = assay: Herbicidal effect on paddy field weeds of post-emergence stage (Post), Test Example 2; conditions: one-leaf stage, 1000 g/ha as active ingredient, examined after 21 days
From the text: as §2
(§3) 75 cm^2 plastic pots were filled with the soil (clay loam). Seeds of Scirpus juncoides and Echinochloa crus-galli, paddy weeds, were planted, and they were covered with 75 cm^3 of soil mixed with seeds of Lindernia procumbens and then filled with water depth of 5 cm and they were brought up in a greenhouse. When the test plants were at one-leaf stage, predetermined effective dosage (1000 g/ha as an active ingredient) of formulations comprising a compound of the present invention as an active ingredient was applied to the pot water. Then, they were brought up in a greenhouse and the herbicidal efficacy was examined after 21 days from the treatment by comparing with the result of an untreated group according to the criteria of Test Example 1. In the table, “-” means that the test was not performed.

Scirpus juncoides [4] = assay: as above; conditions: one-leaf stage, 1000 g/ha as active ingredient, examined after 21 days
From the text: as §2, §3

| Compound | Lindernia procumbens pre (herbicidal effect) (Lindernia procumbens [1]) | Scirpus juncoides pre (herbicidal effect) (Scirpus juncoides [2]) | Lindernia procumbens post (herbicidal effect) (Lindernia procumbens [3]) | Scirpus juncoides post (herbicidal effect) (Scirpus juncoides [4]) |
| --- | --- | --- | --- | --- |
| CCC1(CC(C)C)CCN(Cc2ccccc2N(C(=O)OCC(C)(C)C)S(=O)(=O)C(F)(F)F)C(=O)O1 (racemic) [Compound 1-423] | 5 (100% herbicidal effect, phytotoxicity) | 4 (90%-99% herbicidal effect, phytotoxicity) | 5 (100% herbicidal effect, phytotoxicity) | 4 (90%-99% herbicidal effect, phytotoxicity) |
| CC1(c2ccccc2F)CCN(Cc2ccccc2NS(=O)(=O)C(F)(F)F)C(=O)O1 (racemic) [Compound 1-428] | 5 (100% herbicidal effect, phytotoxicity) | 5 (100% herbicidal effect, phytotoxicity) | 5 (100% herbicidal effect, phytotoxicity) | 4 (90%-99% herbicidal effect, phytotoxicity) |
| COC(=O)N(c1ccccc1CN1CCC(C)(c2ccccc2F)OC1=O)S(=O)(=O)C(F)(F)F (racemic) [Compound 1-429] | 5 (100% herbicidal effect, phytotoxicity) | 4 (90%-99% herbicidal effect, phytotoxicity) | 5 (100% herbicidal effect, phytotoxicity) | 4 (90%-99% herbicidal effect, phytotoxicity) |
| CN(c1ccccc1CN1CCC(C)(C)OC1=O)S(=O)(=O)C(F)(F)F [Compound 1-54] |  | 4 (90%-99% herbicidal effect, phytotoxicity) |  | 4 (90%-99% herbicidal effect, phytotoxicity) |
| CN(c1ccccc1CN1CCC2(CCCC2)OC1=O)S(=O)(=O)C(F)(F)F [Compound 1-145] |  | 4 (90%-99% herbicidal effect, phytotoxicity) |  | 4 (90%-99% herbicidal effect, phytotoxicity) |
| CC(C)COC(=O)N(c1ccccc1CN1CCC(C2CC2)(C2CC2)OC1=O)S(=O)(=O)C(F)(F)F [Compound 1-154] | 4 (90%-99% herbicidal effect, phytotoxicity) |  |  |  |
| CC(C)COC(=O)N(c1ccccc1CN1CCC(C)(c2ccccc2)OC1=O)S(=O)(=O)C(F)(F)F (stereo not drawn) [Compound 1-165] | 4 (90%-99% herbicidal effect, phytotoxicity) | 4 (90%-99% herbicidal effect, phytotoxicity) |  | 4 (90%-99% herbicidal effect, phytotoxicity) |
| CN(c1ccccc1CN1CCC(C)(c2ccccc2)OC1=O)S(=O)(=O)C(F)(F)F (stereo not drawn) [Compound 1-167] |  | 4 (90%-99% herbicidal effect, phytotoxicity) |  |  |
| CN(c1ccccc1CN1CCC(c2ccccc2)(c2ccccc2)OC1=O)S(=O)(=O)C(F)(F)F [Compound 1-224] | 4 (90%-99% herbicidal effect, phytotoxicity) |  |  |  |
| CC(C)COC(=O)N(c1ccccc1CN1CCC(c2ccccc2)OC1=O)S(=O)(=O)C(F)(F)F (stereo not drawn) [Compound 1-244] | 5 (100% herbicidal effect, phytotoxicity) |  | 5 (100% herbicidal effect, phytotoxicity) |  |
| CN(c1ccccc1CN1CCC(c2ccccc2)OC1=O)S(=O)(=O)C(F)(F)F (stereo not drawn) [Compound 1-246] | 5 (100% herbicidal effect, phytotoxicity) |  |  |  |
| CC(C)COC(=O)N(c1ccccc1CN1CCC(c2ccccc2F)OC1=O)S(=O)(=O)C(F)(F)F (stereo not drawn) [Compound 1-255] | 5 (100% herbicidal effect, phytotoxicity) |  | 5 (100% herbicidal effect, phytotoxicity) |  |
| CN(c1ccccc1CN1CCC(c2ccccc2F)OC1=O)S(=O)(=O)C(F)(F)F (stereo not drawn) [Compound 1-257] | 5 (100% herbicidal effect, phytotoxicity) | 4 (90%-99% herbicidal effect, phytotoxicity) | 5 (100% herbicidal effect, phytotoxicity) |  |
| CCOCN(c1ccccc1CN1CC(C)(C)C(c2ccccc2)OC1=O)S(=O)(=O)C(F)(F)F (stereo not drawn) [Compound 1-270] | 5 (100% herbicidal effect, phytotoxicity) |  | 5 (100% herbicidal effect, phytotoxicity) | 4 (90%-99% herbicidal effect, phytotoxicity) |
| CN(c1ccccc1CN1CCC(c2c(Cl)cccc2Cl)OC1=O)S(=O)(=O)C(F)(F)F (stereo not drawn) [Compound 1-279] | 5 (100% herbicidal effect, phytotoxicity) |  | 5 (100% herbicidal effect, phytotoxicity) | 4 (90%-99% herbicidal effect, phytotoxicity) |
| CCOCN(c1ccccc1CN1CCC(c2c(Cl)cccc2Cl)OC1=O)S(=O)(=O)C(F)(F)F (stereo not drawn) [Compound 1-281] | 5 (100% herbicidal effect, phytotoxicity) |  | 5 (100% herbicidal effect, phytotoxicity) | 4 (90%-99% herbicidal effect, phytotoxicity) |
| Cc1ccccc1C1CCN(Cc2ccccc2N(C)S(=O)(=O)C(F)(F)F)C(=O)O1 (stereo not drawn) [Compound 1-290] | 5 (100% herbicidal effect, phytotoxicity) |  | 5 (100% herbicidal effect, phytotoxicity) | 4 (90%-99% herbicidal effect, phytotoxicity) |
| CN(c1ccccc1CN1CCC(c2ccccc2C(F)(F)F)OC1=O)S(=O)(=O)C(F)(F)F (stereo not drawn) [Compound 1-301] | 5 (100% herbicidal effect, phytotoxicity) |  | 5 (100% herbicidal effect, phytotoxicity) |  |
| CN(c1ccccc1CN1CCC(c2ccccc2Cl)OC1=O)S(=O)(=O)C(F)(F)F (stereo not drawn) [Compound 1-312] | 5 (100% herbicidal effect, phytotoxicity) |  | 5 (100% herbicidal effect, phytotoxicity) |  |
| CCOCN(c1ccccc1CN1CCC(c2ccccc2Cl)OC1=O)S(=O)(=O)C(F)(F)F (stereo not drawn) [Compound 1-314] | 5 (100% herbicidal effect, phytotoxicity) | 4 (90%-99% herbicidal effect, phytotoxicity) | 5 (100% herbicidal effect, phytotoxicity) |  |
| CCC1(c2ccccc2)CCN(Cc2ccccc2N(C)S(=O)(=O)C(F)(F)F)C(=O)O1 (stereo not drawn) [Compound 1-323] | 5 (100% herbicidal effect, phytotoxicity) |  | 5 (100% herbicidal effect, phytotoxicity) |  |
| O=C1OC(c2c(F)cccc2F)CCN1Cc1ccccc1NS(=O)(=O)C(F)(F)F (stereo not drawn) [Compound 1-349] | 5 (100% herbicidal effect, phytotoxicity) | 5 (100% herbicidal effect, phytotoxicity) | 5 (100% herbicidal effect, phytotoxicity) |  |
| CCOCN(c1ccccc1CN1CCC(c2c(C)cccc2C)OC1=O)S(=O)(=O)C(F)(F)F (stereo not drawn) [Compound 1-369] | 5 (100% herbicidal effect, phytotoxicity) |  | 5 (100% herbicidal effect, phytotoxicity) | 4 (90%-99% herbicidal effect, phytotoxicity) |
| O=C1OCCCN1Cc1ccccc1NS(=O)(=O)C(F)(F)F [Compound No. 1-1, 3-[2-(trifluoromethanesulfonylamino)benzyl]-[1,3]-oxazinan-2-one] | 4 (90%-99% herbicidal effect, phytotoxicity) | 4 (90%-99% herbicidal effect, phytotoxicity) |  | 4 (90%-99% herbicidal effect, phytotoxicity) |
| CC1CCN(Cc2ccccc2NS(=O)(=O)C(F)(F)F)C(=O)OC1 (stereo not drawn) [Compound No. 2-23, 6-methyl-3-[2-(trifluoromethanesulfonylamino)benzyl]-[1,3]-oxazepan-2-one] | 4 (90%-99% herbicidal effect, phytotoxicity) | 4 (90%-99% herbicidal effect, phytotoxicity) |  | 4 (90%-99% herbicidal effect, phytotoxicity) |
